{"source": "patent US20260085076A1", "about": "“CRYSTAL FORM OF AROMATIC HETEROCYCLIC COMPOUND, COMPOSITION THEREOF, PRODUCTION METHOD THEREOF AND USES THEREOF” (Hangzhou Yuhong Pharmaceutical Technology Co., Ltd., priority 2023, published 2026)", "key": {"SRBC mouse model": {"tested_on": "SRBC mouse model", "assay": "SRBC-induced delayed-type hypersensitivity (DTH) in mice", "type": "in vivo, Balb/c mice", "details": "100 mg/kg gavage once a day, day 0 to day 6, FIG. 76", "description": "Drug formulation: The compound was added to 0.5% CMC-Na solution to formulate a drug suspension (dosage is 10 mg/mL).\nInduction and administration of delayed-type hypersensitivity (DTH): 30 male Balb/c mice were weighed and randomly divided into 6 groups according to body weight, with 5 mice in each group. The experimental period lasted for 7 days. On day 0, mice were sensitized by subcutaneous injection of sheep red blood cells (SRBC). The mice were performed gavage administration at 100 mg/kg (once a day) from day 0 to day 6. On day 6, the mice were injected SRBC into the right hind foot pad for challenge. Measurements were taken on the 7th day of the experiment, and the experiment was concluded.\nPharmacodynamic detection indicators of disease models: the detection and observation indicators are the redness and swelling degree and thickness of the paw pads of SRBC-induced mice. The thickness of the right paw was measured on day 6 before the SRBC injection challenge as the baseline. The thickness of the right paw was measured again at the end of the experiment, the difference in paw thickness before and after the second injection was calculated.\nStatistical analysis: The experimental data were expressed as mean±standard deviation (Mean±SD). All data were statistically analyzed using T-test, with P<0.05 considered statistically significant."}, "[1]": {"assay": "Hot stage XRPD, crystal transformation on heating", "type": "physicochemical"}, "[2]": {"assay": "Influencing factors test of crystal form (high temperature, high humidity)", "type": "physicochemical", "description": "(§1) Samples of crystal form I produced in Example 15 were taken, which were 15 samples of 50 mg each, and sealed with aluminum foil bags. The crystal stability of the above samples were studied under high temperature (60±2° C.), high humidity (RH90%±5%), long-term test (25° C.±2° C., RH 60%±5%) and accelerated test (40° C.±2° C., RH 75%±5%) conditions. […] The long-term and accelerated 3-month crystal form is stable."}, "[3]": {"assay": "Crystal competition experiment in anhydrous ethanol", "type": "physicochemical", "details": "mixture of forms I-IX suspended in anhydrous ethanol, room temperature, 4 days, XRD", "description": "2 mg each of the aromatic heterocyclic compound of crystal form I, crystal form II, crystal form III, crystal form IV, crystal form V, crystal form VI, crystal form VII, crystal form VIII and crystal form IX was added to 3 ml of anhydrous ethanol to form a suspension."}, "[4]": {"assay": "Crystal competition experiment in water", "type": "physicochemical", "details": "mixture of forms I-IX suspended in water, room temperature, 4 and 7 days, XRD"}, "[5]": {"assay": "DVS and isotherm curves, moisture absorption", "type": "physicochemical"}, "[6]": {"assay": "Solubility at different pH values", "type": "physicochemical", "details": "thermodynamic from solid", "description": "Excess samples of crystal form I were respectively added to 10 mL of solutions with different pH value. After being shaken for 24 hours by a constant temperature shaker at 32° C. at 100 rpm, the saturated solutions (with undissolved solids at the bottom) were centrifuged and filtered, then determined linear solutions (formulated with reference substances) with different concentrations and saturated solutions with different pH values under the content item. The solubility of the samples at different pH values were calculated using the standard curve as follows, see FIG. 75 for details."}, "[7]": {"assay": "Stability test of crystal form (long-term, accelerated)", "type": "physicochemical", "description": "as §1"}, "[8]": {"tested_on": "p-STAT5 under IL-15 stimulation in PBMC (JAK-STAT pathway)", "assay": "p-STAT5 ELISA in IL-15 stimulated hPBMC cells", "type": "cell-based, human", "details": "45 min compound, 30 min IL-15, ELISA", "description": "Based on the mechanism of JAK-STAT pathway, the effect of the compounds on the JAK-STAT pathway were evaluated by using cytokine IL-15 to stimulate hPBMC cells, and using the downstream STAT5 phosphorylation level as the detection index.\n1. PBMC cell counting plate: 90 μL PBMC was seeded in a 96-well plate (PBMC cell density 80,000/well).\n2. Treatment with test compounds: After cells being seeded, drug treatment was carried out immediately. The drugs to be tested at 5 μL/well (final concentrations 1, 0.5, 0.1, 0.05, 0.01, and 0.005 μM) were incubated at 37° C. for 45 min.\n3. Cytokine IL-15 stimulation: The cells were stimulated by 5 μL IL-15, and incubated at 37° C. for 30 min.\n4. Protein sample collection: The cells were collected in a centrifuge tube and centrifuged for 5 minutes. The supernatant was discarded and cells were lysed with 1× Cell Extraction Buffer PTR.\n5. p-STAT5 detection: Perform detection according to the requirements of the ELISA kit.\nExperimental results: IC50 values of compounds on p-STAT5 under IL-15 stimulation in PBMC"}, "[9]": {"tested_on": "collagen-induced arthritis model in mice", "assay": "Collagen-induced arthritis model in mice (mCIA)", "type": "in vivo, DBA/1J mice", "details": "50 mg/kg once a day, FIG. 77", "description": "1. Construction of collagen-induced arthritis model in mice (mCIA) Experimental purpose: To test the immunosuppressive activity of YZ001052 in the mCIA model. PF-06651600 was used as a positive control compound.\nComplete and incomplete Freund's adjuvants with chicken type II collagen solution were mixed in equal proportions to form emulsions. Except for the blank control group, a mixture of complete Freund's adjuvant and chicken type II collagen solution was injected subcutaneously into the base of the tail and thigh of mice on Day 0. Each mouse was injected subcutaneously with 100 μL at the base of the tail, and injected 50 μL subcutaneously at the base of both thighs (primary immunization). On day 21, mice were injected subcutaneously with 200 μL of a mixture of incomplete Freund's adjuvant and chicken type II collagen as a booster injection (second immunization). Arthritis was considered to occur if the clinical score of at least one limb was >2 points. Paw thickness measurement: Using a vernier caliper to measure the thickness of the left and right hind feet of the mouse and record it, which is the degree of paw swelling. The detection frequency was once every 3 days."}}, "note": "pIC50: −log10 of the molar value. Entries after “also recorded” stand apart in the source; their conditions may differ.", "data": [{"compound": "C=CC(=O)N1Cc2c(-c3ccnc4[nH]ccc34)nn(C(C)C)c2C[C@H]1C", "note": "[YZ001085]", "values": [{"measurement": "immunosuppressive effect on SRBC-induced delayed-type hypersensitivity (right paw thickness)", "setting": "SRBC mouse model", "result": "significant immunosuppressive effects"}]}, {"compound": "C=CC(=O)N1CCc2c(c(-c3ccnc4[nH]ccc34)nn2C)C1", "note": "[crystal form IX, 1-(1-methyl-3-(1H-pyrrolo[2,3-b]pyridin-4-yl)-1,4,6,7-tetrahydro-5H-pyrazolo[4,3-c]pyridin-5-yl)prop-2-en-1-one]", "values": [{"measurement": "crystal transformation in hot stage XRPD", "setting": "[1]", "result": "transformed into crystal form I at 155 °C"}]}, {"compound": "C=C(F)C(=O)N1CCc2c(c(-c3ccnc4[nH]ccc34)nn2C)C1", "note": "[YZ001054]", "values": [{"measurement": "immunosuppressive effect on SRBC-induced delayed-type hypersensitivity (right paw thickness)", "setting": "SRBC mouse model", "result": "significant immunosuppressive effects"}]}, {"compound": "C=CC(=O)N1CCc2c(c(-c3ccnc4[nH]ccc34)nn2C)C1", "note": "[crystal form I, 1-(1-methyl-3-(1H-pyrrolo[2,3-b]pyridin-4-yl)-1,4,6,7-tetrahydro-5H-pyrazolo[4,3-c]pyridin-5-yl)prop-2-en-1-one]", "values": [{"measurement": "Crystal form test result", "setting": "[2]; 0 days", "result": "form I"}, {"measurement": "Crystal form test result", "setting": "[2]; high humidity RH90% ± 5%, 5 days", "result": "form I"}, {"measurement": "Crystal form test result", "setting": "[2]; high humidity RH90% ± 5%, 15 days", "result": "stable; also recorded: form I"}, {"measurement": "Crystal form test result", "setting": "[2]; high temperature 60 ± 2° C., 5 days", "result": "form I"}, {"measurement": "Crystal form test result", "setting": "[2]; high temperature 60 ± 2° C., 15 days", "result": "stable; also recorded: form I"}, {"measurement": "crystal stability in ethanol", "setting": "[3]", "result": "good crystal stability in the presence of ethanol"}, {"measurement": "crystal stability in water", "setting": "[4]", "result": "good crystal stability in water"}, {"measurement": "moisture absorption rate", "setting": "[5]", "result": "about 2.4%"}, {"measurement": "solubility at 24 h", "setting": "[6]; aqueous solution of pH 1.0, simulated gastric fluid, pH 1.0, 32° C.", "result": 14500, "unit": "µg/mL"}, {"measurement": "solubility at 24 h", "setting": "[6]; aqueous solution of pH 2.0, simulated gastric fluid, pH 2.0, 32° C.", "result": 2740, "unit": "µg/mL"}, {"measurement": "solubility at 24 h", "setting": "[6]; aqueous solution of pH 3.8, aqueous buffer, pH 3.8, 32° C.", "result": 118, "unit": "µg/mL"}, {"measurement": "solubility at 24 h", "setting": "[6]; aqueous solution of pH 4.5, aqueous buffer, pH 4.5, 32° C.", "result": 68.6, "unit": "µg/mL"}, {"measurement": "solubility at 24 h", "setting": "[6]; aqueous solution of pH 6.8, aqueous buffer, pH 6.8, 32° C.", "result": 58.9, "unit": "µg/mL"}, {"measurement": "solubility at 24 h", "setting": "[6]; aqueous solution of pH 8.0, aqueous buffer, pH 8.0, 32° C.", "result": 60.8, "unit": "µg/mL"}, {"measurement": "solubility at 24 h", "setting": "[6]; water, 32° C.", "result": 53.2, "unit": "µg/mL"}, {"measurement": "Crystal form test result", "setting": "[7]; 0 days", "result": "form I"}, {"measurement": "Crystal form test result", "setting": "[7]; accelerated 40° C. ± 2° C., RH 75% ± 5%, 1 month", "result": "form I"}, {"measurement": "Crystal form test result", "setting": "[7]; accelerated 40° C. ± 2° C., RH 75% ± 5%, 3 month", "result": "stable; also recorded: form I"}, {"measurement": "Crystal form test result", "setting": "[7]; long-term 25° C. ± 2° C., RH 60% ± 5%, 1 month", "result": "form I"}, {"measurement": "Crystal form test result", "setting": "[7]; long-term 25° C. ± 2° C., RH 60% ± 5%, 3 month", "result": "stable; also recorded: form I"}]}, {"compound": "C=CC(=O)N1CCc2c(c(-c3ccnc4[nH]ccc34)nn2C)C1", "note": "[crystal form II, 1-(1-methyl-3-(1H-pyrrolo[2,3-b]pyridin-4-yl)-1,4,6,7-tetrahydro-5H-pyrazolo[4,3-c]pyridin-5-yl)prop-2-en-1-one]", "values": [{"measurement": "crystal transformation in hot stage XRPD", "setting": "[1]", "result": "transformed into crystal form I at 150 °C"}, {"measurement": "moisture absorption rate", "setting": "[5]", "result": "about 2.4%"}]}, {"compound": "C=CC(=O)N1C[C@H](Nc2ncnc3[nH]ccc23)CC[C@@H]1C", "note": "[PF-06651600, reference compound]", "values": [{"measurement": "pIC50", "setting": "[8]", "result": 7.07}, {"measurement": "paw swelling", "setting": "[9]; CIA mice", "result": "improved to varying degrees"}, {"measurement": "arthritis score", "setting": "[9]; compared with the model group", "result": "significantly decreased"}]}, {"compound": "C=CC(=O)N1CCc2c(c(-c3ccnc4[nH]ccc34)nn2C)C1", "note": "[crystal form VI, 1-(1-methyl-3-(1H-pyrrolo[2,3-b]pyridin-4-yl)-1,4,6,7-tetrahydro-5H-pyrazolo[4,3-c]pyridin-5-yl)prop-2-en-1-one]", "values": [{"measurement": "crystal transformation in hot stage XRPD", "setting": "[1]", "result": "transformed into crystal form I at 150 °C"}]}, {"compound": "C=CC(=O)N1CCc2[nH]nc(-c3ccnc4[nH]ccc34)c2C1", "note": "[YZ001065]", "values": [{"measurement": "immunosuppressive effect on SRBC-induced delayed-type hypersensitivity (right paw thickness)", "setting": "SRBC mouse model", "result": "significant immunosuppressive effects"}]}, {"compound": "C=CC(=O)N1CCc2c(c(-c3ccnc4[nH]ccc34)nn2C)C1", "note": "[crystal form VII, 1-(1-methyl-3-(1H-pyrrolo[2,3-b]pyridin-4-yl)-1,4,6,7-tetrahydro-5H-pyrazolo[4,3-c]pyridin-5-yl)prop-2-en-1-one]", "values": [{"measurement": "crystal transformation in hot stage XRPD", "setting": "[1]", "result": "transformed to crystal form I at 150 °C"}, {"measurement": "moisture absorption rate", "setting": "[5]", "result": "about 1.3%"}]}, {"compound": "C=CC(=O)N1CCc2c(c(-c3ccnc4[nH]ccc34)nn2C)C1", "note": "[crystal form III, 1-(1-methyl-3-(1H-pyrrolo[2,3-b]pyridin-4-yl)-1,4,6,7-tetrahydro-5H-pyrazolo[4,3-c]pyridin-5-yl)prop-2-en-1-one]", "values": [{"measurement": "crystal stability in water", "setting": "[4]", "result": "good crystal stability in water"}, {"measurement": "crystal transformation in hot stage XRPD", "setting": "[1]", "result": "no crystal transformation at 140 °C"}, {"measurement": "moisture absorption rate", "setting": "[5]", "result": "about 2.2%"}]}, {"compound": "C=CC(=O)N1CCc2c(c(-c3ccnc4[nH]ccc34)nn2C)C1", "note": "[crystal form VIII, 1-(1-methyl-3-(1H-pyrrolo[2,3-b]pyridin-4-yl)-1,4,6,7-tetrahydro-5H-pyrazolo[4,3-c]pyridin-5-yl)prop-2-en-1-one]", "values": [{"measurement": "crystal transformation in hot stage XRPD", "setting": "[1]", "result": "most of the crystals were transformed into crystal form I at 150 °C"}, {"measurement": "moisture absorption rate", "setting": "[5]", "result": "about 1.3%"}]}]}
